Target: T1, full length AKT1 (Homo sapiens, UniProt P31749)
T1 construct: His tag (from vector pFastBacHTb) (N); made in house; host or cells: baculovirus; Sf9 / T. ni insect cells
Assay: Full-length AKT enzyme assay (substrate phosphorylation, SPA)
Type: biochemical
Conditions: in at least one experimental run; pIC50 = -log(IC50), IC50 in molar units; 4 uM ATP, 10 nM activated enzyme; read-out: pIC50 against full length AKT1 (converted)

T1 sequence (P31749 whole entry): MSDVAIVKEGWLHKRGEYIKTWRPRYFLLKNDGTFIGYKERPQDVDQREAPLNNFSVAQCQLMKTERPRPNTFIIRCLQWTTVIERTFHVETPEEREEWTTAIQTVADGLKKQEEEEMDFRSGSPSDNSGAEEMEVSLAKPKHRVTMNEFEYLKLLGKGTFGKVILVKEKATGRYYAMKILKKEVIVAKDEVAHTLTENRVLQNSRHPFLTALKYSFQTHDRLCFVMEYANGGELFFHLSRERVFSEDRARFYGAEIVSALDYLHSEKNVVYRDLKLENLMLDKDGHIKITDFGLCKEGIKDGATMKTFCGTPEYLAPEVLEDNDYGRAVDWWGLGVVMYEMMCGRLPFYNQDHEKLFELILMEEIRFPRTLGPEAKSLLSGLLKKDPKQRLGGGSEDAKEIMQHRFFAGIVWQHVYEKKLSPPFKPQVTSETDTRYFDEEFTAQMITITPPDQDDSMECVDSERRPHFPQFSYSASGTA

IC50: 6.31 nM
Structure (SMILES): Cn1nccc1-c1cnc(C(=O)N[C@H](CN)Cc2cccc(F)c2)s1 [Example 1, N-{(1S)-2-amino-1-[(3-fluorophenyl)methyl]ethyl}-5-(1-methyl-1H-pyrazol-5-yl)-1,3-thiazole-2-carboxamide]
